{"source": "patent US5846720A", "about": "“Methods of determining chemicals that modulate expression of genes associated with cardiovascular disease” (Oncogene Science, Inc., priority 1996, dated 1998)", "key": {"[1]": {"system": "5637 bladder carcinoma cells", "experiment": "G-CSF secretion, two-antibody sandwich immunoassay", "type": "cell-based, human", "conditions": "48 hours, serum-containing media", "experimental": "Supernatants from 5637 bladder carcinoma cells incubated with chemicals registering as positives in the G-CSF promoter/luciferase high throughput assay were assayed for secreted G-CSF protein using the two-antibody sandwich immunoassay (83). The G-CSF Assay kit manufactured by Oncogene Science, Inc. was used and the manufacturer's instructions were followed.\nThe levels of G-CSF in the cell supernatants were determined by a sandwich-antibody assay as described in above (FIG. 42)."}, "G-CSF mRNA [2]": {"system": "G-CSF mRNA", "experiment": "S1 nuclease protection, G-CSF mRNA", "type": "cell-based, human", "experimental": "(§1) S1 Nuclease protection assays were carried out as described in reference 118.\n(§2) To further confirm, that compounds that had been identified in a luciferase expression assay using a G-CSF specific reporter cell line would be active in inducing transcription of the endogenous G-CSF gene, cells from the parental cell line 5637 used to construct the reporter cell line were incubated with cycloheximide (25 ug/ml), DMSO (0.5%,solvent control) and low, medium and high concentrations of the compounds 542 (10, 50, 250 μM),1255 (20, 100, 500 uM), 1793(0.25, 1.2, 6.25 μM) and 1904 (20, 100 uM) for 18 hours. RNA was extracted and the concentration of G-CSF, GM-CSF and gamma-actin mRNA was determined by the S1 protection method as described in above. The positions of G-CSF GM-CSF and gamma-actin specific protected fragments are indicated (G, GM, A) at the left side of the gel (FIG. 37)."}, "FRE cells": {"system": "FRE cells", "experiment": "MTT respiratory inhibition cytotoxicity assay versus luciferase induction in G21", "type": "cell-based", "conditions": "G21 reporter cells vs FRE cells, 6 hours", "from_the_text": "To determine cytotoxic concentrations of chemicals registering as positives in the high throughput luciferase assay the MTT cytotoxicity assay was employed (82). In this assay, a tetrazolium salt [3-(4,5-dimethylthiazol-2-yl)-2,5-diphenyl -tetrazolium bromide, MTT] is reduced to a colored formazon product by reducing enzymes present only in living metabolically active cells.\nTo address the question whether the induction of G-CSF, and GM-CSF transcription by the compound #542 was a specific effect or rather a phenomenon linked to a potential sensitivity of these promoters to stress exerted by toxic compounds, the concentration dependency of induction of luciferase activity in the reporter cell line G21 was compared to the concentration dependency of inhibition of respiration in FRE cells. Cells were seeded into 96 well microtiter plates (20,000 cells/well) and cultured overnight. Compound #542 was added at various concentrations and the cells were incubated for 6 hours. Luciferase activity was determined as described above. The MTT-colorimetric assay was carried out on identically treated samples of FRE cells. Induction of luciferase reporter signal (plain line) and on inhibition of respiration (dashed line) are plotted versus the concentrations of compound (FIG. 40). […]"}, "GM-CSF mRNA": {"system": "GM-CSF mRNA", "experiment": "S1 nuclease protection, GM-CSF mRNA", "type": "cell-based, human", "conditions": "5637 cells, 18 hours", "experimental": "as §1, §2"}, "HMGCoA reductase": {"system": "HMGCoA reductase", "conditions": "animals, high doses; cited from earlier work"}, "G-CSF mRNA [3]": {"system": "G-CSF mRNA", "experiment": "Northern blot of endogenous G-CSF mRNA", "type": "cell-based, human", "conditions": "U5637 cells, relative to DMSO", "experimental": "Total cellular RNA was isolated from cells following incubation with chemicals as described above and electrophoresed in a 1% Agarose Formaldehyde gel. The RNA was transferred to Duralon-UV nylon filters (Stratagene, La Jolla, Calif.) using the manufacturer's recommended protocol. The filters were prehybridized for 4 hours (prehybridizing solution=5× SSC, 50 mM sodium pyrophosphate, 10× Denhardt's solution, 10% dextran sulfate, 7% SDS and 250 μg/ml denatured ssDNA) and then hybridized in the same solution for 16 hours at 65° C. in the presence of specific probes. The G-CSF probe was a 0.6 kb AflII to Xhol fragment which contained most of exon 5 of the human G-CSF gene. The β-actin (Oncor, Gaithersburg, Md.) probe was used as a control probe to normalize for the total amount of RNA. The probes were labeled with alpha-32P dCTP using a random primed DNA labeling kit (Amersham, Arlington, Ill.). Following hybridization, filters were washed three times at room temperature with 1× SSC, 0.13% SDS and three times at 65° C. with 0.2× SSC, 0.1% SDS. Filters were first probed with the G-CSF specific probe and then reprobed with β-actin-probe. Exposure to x-ray film was performed overnight. Bands were excised and counted in a liquid scintillation counter (LKB, Gaithersburg, Md.), and counts obtained with the G-CSF specific probe were normalized relative to the counts obtained with the β-Actin specific probe.\nAlso shown are the effects of the solvent, DMSO, used to dissolve the chemicals and a proteinaceous positive regulator, interferon-gamma."}, "M-CSF promoter": {"system": "M-CSF promoter", "experiment": "M-CSF (CSF-1) promoter/luciferase induction, M2071, M2085, M2086", "type": "cell-based, human", "conditions": "2,000 units/ml, 16 hours, all three M-CSF clones", "experimental": "Human promyelocytic leukemia HL-60 cells are known to express CSF-1 (74). They were transfected with linearized pCSF1-102 (FIG. 21) and linearized PTKneo3 using electroporation as described above. Three neomycin resistant clones were generated: --M2071, M2085 and M2086. All three responded to a 16 hour incubation with 2000 units/ml interferon-gamma by a 20-fold increase of luciferase expression. M2086 was selected for use in the high throughput screen. The WI-38 human fibroblast cell line is also capable of producing CSF-1. Stable transfectants are also prepared from these for screening in a different cellular background. There is evidence for tissue-specific modulation of CSF-1 gene expression, and since the major source of the CSF-1 which stimulates the growth of macrophages at atherosclerotic plaques is unknown, screening with more than one cell line may be useful.\nPromoter induction experiments were also conducted with the GM-CSF reporter cell lines GM1073, GM1088 and GM1105, which were all shown to contain correctly inserted constructs (see above). […] Luciferase expression of clones GM1088 and GM1105 was induced by PMA 2.8 fold and 2 fold, respectively, while TNF-alpha induced both clones 2 fold. All three M-CSF clones responded to a 16-hour incubation with 2,000 units/ml Interferon-gamma by a 20-fold increase of luciferase expression from the M-CSF promoter."}}, "data": [{"compound": "Nc1nc(=O)n([C@H]2C[C@H](O)[C@@H](CO)O2)cc1Br", "note": "[#542]", "values": [{"measurement": "G-CSF secretion", "setting": "[1]", "result": "increased G-CSF secretion"}, {"measurement": "amount of G-CSF mRNA (S1 nuclease protection)", "setting": "G-CSF mRNA [2]; 5637 cells, 18 hours", "result": "increased mRNA production"}, {"measurement": "levels of endogenous G-CSF mRNA", "setting": "G-CSF mRNA [2]; method not stated at the place", "result": "stimulate levels of endogenous G-CSF mRNA"}, {"measurement": "factor between ED50 for induction of luciferase activity and ED50 for inhibition of respiration", "setting": "FRE cells", "result": "~10", "unit": "factor"}, {"measurement": "amount of GM-CSF mRNA (S1 nuclease protection)", "setting": "GM-CSF mRNA", "result": "increased the amount of GM-CSF mRNA"}]}, {"compound": "CC[C@H](C)C(=O)O[C@H]1C[C@@H](C)C=C2C=C[C@H](C)[C@H](CC[C@@H]3C[C@@H](O)CC(=O)O3)[C@H]21", "note": "[mevinolin]", "values": [{"measurement": "HMGCoA reductase levels", "setting": "HMGCoA reductase", "result": "increased levels of HMGCoA reductase"}]}, {"compound": "Interferon-gamma: a proteinaceous positive regulator, interferon-gamma", "values": [{"measurement": "effect on endogenous G-CSF mRNA (Northern blot)", "setting": "G-CSF mRNA [3]", "result": "increased G-CSF mRNA production"}, {"measurement": "increase of luciferase expression from the M-CSF promoter", "setting": "M-CSF promoter", "result": 20, "unit": "fold"}]}]}
